Test results taken from ChEMBL document CHEMBL1131795, “The spiroketals containing a benzyloxymethyl moiety at C8 position showed the most potent apoptosis-inducing activity” (1999).

How the values were obtained:
Assay type in all cases: functional
Homo sapiens [1] = organism: Homo sapiens; assay: Cell viability of serum-deprived Jurkat cells were determined, 24 hours after incubation with 20 uM concentration of the compound, by MTT-assay
Homo sapiens [2] = organism: Homo sapiens; assay: Cell viability of serum-deprived Jurkat cells were determined, 24 hours after incubation with 100 uM concentration of the compound, by MTT-assay
Homo sapiens [3] = organism: Homo sapiens; assay: Concentration required to cause death of human T cell leukemia Jurkat cell was determined; conditions: read-out: LC50 (the source's name)

In the case of C[C@@H]1CCCO[C@]12O[C@H](CO)[C@@H](C)C[C@H]2S(=O)(=O)c1ccccc1, the Cell viability (Homo sapiens [1]) is reported as 67.1% and the Cell viability (Homo sapiens [2]) is reported as 39%.
For C[C@@H]1CCCO[C@@]12CC[C@H](C)[C@@H](COC1CCCCO1)O2 (some centres not stated), the Cell viability (Homo sapiens [1]) was 84.1% and the Cell viability (Homo sapiens [2]) was 60.1%.
Compound C[C@@H]1CCCO[C@@]12CC[C@H](C)[C@@H](CO)O2 has a Cell viability (Homo sapiens [1]) of 86% and a Cell viability (Homo sapiens [2]) of 43.8%.
Compound C[C@@H]1CCCO[C@@]12CC[C@H](C)[C@@H](COCOCc1ccccc1)O2 has a CC50 (Homo sapiens [3]) of 32 µM, a Cell viability (Homo sapiens [1]) of 77.9% and a Cell viability (Homo sapiens [2]) of 0.3%.
C[C@@H]1CCCO[C@]12O[C@H](CO[Si](c1ccccc1)(c1ccccc1)C(C)(C)C)[C@@H](C)C[C@H]2S(=O)(=O)c1ccccc1 was tested, and the Cell viability (Homo sapiens [1]) was 79.5% and the Cell viability (Homo sapiens [2]) was 68.4%.
For C[C@@H]1CCCO[C@@]12CC[C@H](C)[C@@H](CO[Si](c1ccccc1)(c1ccccc1)C(C)(C)C)O2, the Cell viability (Homo sapiens [1]) was 38.2% and the Cell viability (Homo sapiens [2]) was 43%.
Compound C[C@@H]1CCCO[C@@]12CCCCO2 has a Cell viability (Homo sapiens [1]) of 98.6% and a Cell viability (Homo sapiens [2]) of 87.4%.
Work on COCOC[C@H]1O[C@@]2(CC[C@@H]1C)OCCC[C@H]2C yielded a Cell viability (Homo sapiens [1]) of 89.1% and a Cell viability (Homo sapiens [2]) of 81.5%.
For C[C@@H]1CCCO[C@@]12CC[C@H](C)[C@@H](COCc1ccccc1)O2, the CC50 (Homo sapiens [3]) was 14 µM, the Cell viability (Homo sapiens [1]) was 1.7% and the Cell viability (Homo sapiens [2]) was 0%.
In the case of CC1CC[C@]2(CCCCO2)OC1 (some centres not stated), the Cell viability (Homo sapiens [1]) is reported as 97.7% and the Cell viability (Homo sapiens [2]) is reported as 84.6%.
